In publication PMC12015462, “Prioritization of novel anti-infective stilbene derivatives by combining metabolomic data organization and a stringent 3R-infection model in a knowledge graph” (RSC Advances, 2025):
Like-named read-outs stand apart in the source and are kept apart here.

Tests used:
Assay type in all cases: cell-based
Mycobacterium marinum [1] = test: Infection assay: intracellular M. marinum growth (luminescence) in D. discoideum; conditions: for activity at 0.411523 µM / activity at 1.23457 µM / activity at 3.7037 µM / activity at 11.1111 µM / activity at 33.3333 µM / activity at 100 µM: 72 h; for activity at 0.411523 µM: conc 0.411522634 uM; for activity at 1.23457 µM: conc 1.234567901 uM; for activity at 3.7037 µM: conc 3.703703704 uM; for activity at 11.1111 µM: conc 11.11111111 uM; for activity at 33.3333 µM: conc 33.33333333 uM; for activity at 100 µM: conc 100 uM; for IC50: interpolated between the two concentrations closest to residual growth 0.5, top concentration 100 μM
From the text: (§1) Since fractions were not weighed individually, the injection mass was used to calculate an average mass per fraction and thus a nominal mass concentration.

Mycobacterium marinum [2] = test: Anti-biotic assay: M. marinum growth in broth (luminescence); conditions: for activity at 0.411523 µM / activity at 1.23457 µM / activity at 3.7037 µM / activity at 11.1111 µM / activity at 33.3333 µM / activity at 100 µM: 72 h; for IC50: read-out: IC50 Mm in broth (μM)
Procedure: as §1
Plating bacteria and compounds or fractions was performed analogously to the infection assay described above. Bacteria growth was monitored with the Agilent BioTek H1 plate reader by recording luminescence at 32 °C.
The prepared plates were sealed and stored at 4 °C overnight. On the day of the experiment, nine 10 cm Petri dishes were infected (as described before) and grouped into three pools.

Dictyostelium discoideum = test: Infection assay: growth of the host amoeba D. discoideum (fluorescence) in infection; conditions: for activity at 0.411523 µM / activity at 1.23457 µM / activity at 3.7037 µM / activity at 11.1111 µM / activity at 33.3333 µM / activity at 100 µM: 72 h; for IC50: read-out: IC50 Dd in infection (μM)
From the text: as §1

[3] = vehicle control set at 1, read-out: mean normalized residual growth, Mm in infection
[4] = vehicle control set at 1, read-out: median normalized residual growth, Mm in infection
[5] = read-out: mean (normalised M. marinum growth, Mm in broth)
[6] = read-out: median (normalised M. marinum growth, Mm in broth)
[7] = read-out: mean normalized residual growth, Dd in infection
[8] = read-out: median normalized residual growth, Dd in infection

SMILES	activity at 0.411523 µM (Mycobacterium marinum [1]; [3])	activity at 0.411523 µM (Mycobacterium marinum [1]; [4])	activity at 1.23457 µM (Mycobacterium marinum [1]; [3])	activity at 1.23457 µM (Mycobacterium marinum [1]; [4])	activity at 3.7037 µM (Mycobacterium marinum [1]; [3])	activity at 3.7037 µM (Mycobacterium marinum [1]; [4])	activity at 11.1111 µM (Mycobacterium marinum [1]; [3])	activity at 11.1111 µM (Mycobacterium marinum [1]; [4])	activity at 33.3333 µM (Mycobacterium marinum [1]; [3])	activity at 33.3333 µM (Mycobacterium marinum [1]; [4])	activity at 100 µM (Mycobacterium marinum [1]; [3])	activity at 100 µM (Mycobacterium marinum [1]; [4])	IC50 (Mycobacterium marinum [1])	activity at 0.411523 µM (Mycobacterium marinum [2]; [5])	activity at 1.23457 µM (Mycobacterium marinum [2]; [5])	activity at 3.7037 µM (Mycobacterium marinum [2]; [5])	activity at 11.1111 µM (Mycobacterium marinum [2]; [5])	activity at 33.3333 µM (Mycobacterium marinum [2]; [5])	activity at 100 µM (Mycobacterium marinum [2]; [5])	activity at 0.411523 µM (Mycobacterium marinum [2]; [6])	also measured
Oc1ccc(/C=C/c2cc(O)c3c(c2)O[C@H](c2ccc(O)cc2)[C@H]3c2cc(O)c3c(c2)O[C@H](c2ccc(O)cc2)[C@H]3c2cc(O)c3c(c2)O[C@H](c2ccc(O)cc2O)[C@H]3c2cc(O)cc(O)c2)cc1 [Compound 7, Macrostachyol A]	139%	130%	158%	153%	163%	154%	151%	157%	80.7%	76%	33.4%	37.5%	66.7 µM	118%	118%	114%	106%	112%	107%	117%	activity at 1.23457 µM (Mycobacterium marinum [2]; [6]): 123%; activity at 3.7037 µM (Mycobacterium marinum [2]; [6]): 116%; activity at 11.1111 µM (Mycobacterium marinum [2]; [6]): 105%; activity at 33.3333 µM (Mycobacterium marinum [2]; [6]): 114%; activity at 100 µM (Mycobacterium marinum [2]; [6]): 109%; IC50 (Mycobacterium marinum [2]): > 100 µM; activity at 0.411523 µM (Dictyostelium discoideum; [7]): 143%; activity at 1.23457 µM (Dictyostelium discoideum; [7]): 146%; activity at 3.7037 µM (Dictyostelium discoideum; [7]): 119%; activity at 11.1111 µM (Dictyostelium discoideum; [7]): 111%; activity at 33.3333 µM (Dictyostelium discoideum; [7]): 63%; activity at 100 µM (Dictyostelium discoideum; [7]): -92.9%; activity at 0.411523 µM (Dictyostelium discoideum; [8]): 91.3%; activity at 1.23457 µM (Dictyostelium discoideum; [8]): 90.3%; activity at 3.7037 µM (Dictyostelium discoideum; [8]): 92%; activity at 11.1111 µM (Dictyostelium discoideum; [8]): 91%; activity at 33.3333 µM (Dictyostelium discoideum; [8]): 82.1%; activity at 100 µM (Dictyostelium discoideum; [8]): 3.73%; IC50 (Dictyostelium discoideum): 66.7 µM
Oc1ccc(/C=C/c2cc(O)c3c(c2)O[C@H](c2ccc(O)cc2)[C@H]3c2cc(O)c3c(c2)O[C@H](c2ccc(O)cc2)[C@H]3c2cc(O)c3c(c2)O[C@H](c2ccc(O)cc2)[C@H]3c2cc(O)cc(O)c2)cc1 [Compound 8, Gnemonol B]	132%	146%	105%	94.6%	127%	144%	124%	128%	112%	117%	61%	45.3%	66.7 µM	118%	111%	113%	119%	117%	114%	125%	activity at 1.23457 µM (Mycobacterium marinum [2]; [6]): 116%; activity at 3.7037 µM (Mycobacterium marinum [2]; [6]): 117%; activity at 11.1111 µM (Mycobacterium marinum [2]; [6]): 115%; activity at 33.3333 µM (Mycobacterium marinum [2]; [6]): 120%; activity at 100 µM (Mycobacterium marinum [2]; [6]): 115%; IC50 (Mycobacterium marinum [2]): > 100 µM; activity at 0.411523 µM (Dictyostelium discoideum; [7]): 159%; activity at 1.23457 µM (Dictyostelium discoideum; [7]): 139%; activity at 3.7037 µM (Dictyostelium discoideum; [7]): 139%; activity at 11.1111 µM (Dictyostelium discoideum; [7]): 120%; activity at 33.3333 µM (Dictyostelium discoideum; [7]): 114%; activity at 100 µM (Dictyostelium discoideum; [7]): 51.3%; activity at 0.411523 µM (Dictyostelium discoideum; [8]): 92.7%; activity at 1.23457 µM (Dictyostelium discoideum; [8]): 85.7%; activity at 3.7037 µM (Dictyostelium discoideum; [8]): 92.1%; activity at 11.1111 µM (Dictyostelium discoideum; [8]): 88.6%; activity at 33.3333 µM (Dictyostelium discoideum; [8]): 81.5%; activity at 100 µM (Dictyostelium discoideum; [8]): 33.4%; IC50 (Dictyostelium discoideum): 66.7 µM
Oc1ccc([C@@H]2Oc3cc(O)ccc3[C@H]3[C@H](c4cc(O)cc(O)c4)c4c(O)cc(O)cc4[C@H]32)cc1 [Compound 9, (−)-Gnemontanin G]	59%	69.2%	82.5%	85.7%	76.2%	74.2%	58.4%	59.5%	65.6%	72.4%	71.9%	75.7%	> 100 µM	87.4%	93.9%	92.7%	81.3%	89.2%	92.6%	86.6%	activity at 1.23457 µM (Mycobacterium marinum [2]; [6]): 96.7%; activity at 3.7037 µM (Mycobacterium marinum [2]; [6]): 92.3%; activity at 11.1111 µM (Mycobacterium marinum [2]; [6]): 78.6%; activity at 33.3333 µM (Mycobacterium marinum [2]; [6]): 87.9%; activity at 100 µM (Mycobacterium marinum [2]; [6]): 91.7%; activity at 0.411523 µM (Dictyostelium discoideum; [7]): 58.2%; activity at 1.23457 µM (Dictyostelium discoideum; [7]): 70.8%; activity at 3.7037 µM (Dictyostelium discoideum; [7]): 60.4%; activity at 11.1111 µM (Dictyostelium discoideum; [7]): 64.9%; activity at 33.3333 µM (Dictyostelium discoideum; [7]): 72.5%; activity at 100 µM (Dictyostelium discoideum; [7]): 103%; activity at 0.411523 µM (Dictyostelium discoideum; [8]): 95.8%; activity at 1.23457 µM (Dictyostelium discoideum; [8]): 97.6%; activity at 3.7037 µM (Dictyostelium discoideum; [8]): 99.6%; activity at 11.1111 µM (Dictyostelium discoideum; [8]): 93.8%; activity at 33.3333 µM (Dictyostelium discoideum; [8]): 91.4%; activity at 100 µM (Dictyostelium discoideum; [8]): 91.6%; IC50 (Dictyostelium discoideum): > 100 µM
